How the values were obtained:
Type in all cases: functional
Leishmania donovani [1] = assay: Antileishmanial activity against Leishmania donovani LCR-L133 promastigotes at 1 […] after 48 hrs relative to control
Leishmania donovani [2] = assay: Antileishmanial activity against Leishmania donovani LCR-L133 promastigotes at 100 […] after 24 hrs relative to control
Leishmania donovani [3] = assay: Antileishmanial activity against Leishmania donovani LCR-L133 promastigotes at 10 […] after 24 hrs relative to control
Leishmania donovani [4] = assay: Antileishmanial activity against Leishmania donovani LCR-L133 promastigotes at 1 […] after 24 hrs relative to control
Leishmania donovani [5] = assay: Antileishmanial activity against Leishmania donovani LCR-L133 promastigotes at 100 […] after 48 hrs relative to control
Leishmania donovani [6] = assay: Antileishmanial activity against Leishmania donovani LCR-L133 promastigotes at 10 […] after 48 hrs relative to control
Leishmania donovani [7] = assay: Antileishmanial activity against Leishmania donovani LCR-L133 promastigotes at 100 […] after 72 hrs relative to control
Leishmania donovani [8] = assay: Antileishmanial activity against Leishmania donovani LCR-L133 promastigotes at 10 […] after 72 hrs relative to control
Leishmania donovani [9] = assay: Antileishmanial activity against Leishmania donovani LCR-L133 promastigotes at 1 […] after 72 hrs relative to control
Leishmania donovani [10] = assay: Antileishmanial activity against Leishmania donovani LCR-L133 amastigotes at 100 ug/ml after 24 hrs relative to control
Leishmania donovani [11] = assay: Antileishmanial activity against Leishmania donovani LCR-L133 amastigotes at 10 ug/ml after 24 hrs relative to control
Leishmania donovani [12] = assay: Antileishmanial activity against Leishmania donovani LCR-L133 amastigotes at 1 ug/ml after 24 hrs relative to control
Leishmania donovani [13] = assay: Antileishmanial activity against Leishmania donovani LCR-L133 amastigotes at 100 ug/ml after 48 hrs relative to control
Leishmania donovani [14] = assay: Antileishmanial activity against Leishmania donovani LCR-L133 amastigotes at 10 ug/ml after 48 hrs relative to control
Leishmania donovani [15] = assay: Antileishmanial activity against Leishmania donovani LCR-L133 amastigotes at 1 ug/ml after 48 hrs relative to control
Leishmania donovani [16] = assay: Antileishmanial activity against Leishmania donovani LCR-L133 amastigotes at 100 ug/ml after 72 hrs relative to control
Leishmania donovani [17] = assay: Antileishmanial activity against Leishmania donovani LCR-L133 amastigotes at 10 ug/ml after 72 hrs relative to control
Leishmania donovani [18] = assay: Antileishmanial activity against Leishmania donovani LCR-L133 amastigotes at 1 ug/ml after 72 hrs relative to control

Compound | Activity (Leishmania donovani [1]) | Activity (Leishmania donovani [2]) | Activity (Leishmania donovani [3]) | Activity (Leishmania donovani [4]) | Activity (Leishmania donovani [5]) | Activity (Leishmania donovani [6]) | Activity (Leishmania donovani [7]) | Activity (Leishmania donovani [8]) | Activity (Leishmania donovani [9]) | Activity (Leishmania donovani [10]) | Activity (Leishmania donovani [11]) | Activity (Leishmania donovani [12]) | Activity (Leishmania donovani [13]) | Activity (Leishmania donovani [14]) | Activity (Leishmania donovani [15]) | Activity (Leishmania donovani [16]) | Activity (Leishmania donovani [17]) | Activity (Leishmania donovani [18])
C=C[C@]1(C)O[C@@]2(C)CC[C@@H]3C(C)(C)C(=O)CC[C@@]3(C)[C@@H]2CC1=O | 0% | 0% | 0% | 0% | 25% | 0% | 0% | 0% | 0% | 22% | 0% | 0% | 31% | 7% | 0% | 36% | 11% | 0%
C=C[C@]1(C)O[C@@]2(C)CC[C@@H]3C(C)(C)[C@H](O)CC[C@@]3(C)[C@@H]2C[C@@H]1O | 0% | 0% | 0% | 0% | 31% | 0% | 0% | 0% | 0% | 15% | 0% | 0% | 31% | 6% | 0% | 35% | 11% | 0%
C=C[C@]1(CO)CC[C@H]2[C@]3(C)CCC(=O)[C@](C)(C(=O)OC)[C@H]3CC[C@]2(C)O1 | 0% | 0% | 0% | 0% | 22% | 0% | 34% | 0% | 0% | 9% | 0% | 0% | 14% | 0% | 0% | 19% | 0% | 0%
MEGLUMINE ANTIMONATE | 20% | 70% | 28% | 4% | 74% | 40% | 76% | 42% | 39% | – | – | – | – | – | – | – | – | –
C=C[C@@]1(C)CC[C@H]2[C@]3(C)CC[C@@H](O)C(C)(C)[C@H]3[C@@H](O)C[C@]2(C)O1 | 0% | 0% | 0% | 0% | 52% | 0% | 0% | 0% | 0% | 34% | 10% | 0% | 51% | 24% | 0% | 67% | 33% | 14%
C=C[C@]1(C)O[C@@]2(C)CC[C@@H]3C(C)(C)[C@H](O)CC[C@@]3(C)[C@@H]2C[C@H]1O [VARODIOL] | 0% | 0% | 0% | 0% | 63% | 0% | 0% | 0% | 0% | 12% | 0% | 0% | 29% | 7% | 0% | 33% | 12% | 0%
C=C[C@@]1(CO)CC[C@H]2[C@]3(C)CCC[C@](C)(C(=O)OC)[C@H]3CC[C@]2(C)O1 | 0% | 0% | 0% | 0% | 62% | 0% | 79% | 0% | 0% | 47% | 17% | 0% | 58% | 26% | 12% | 67% | 35% | 13%
C=C[C@@]1(C)CC[C@H]2[C@]3(C)CC[C@@H](O)C(C)(C)[C@H]3CC[C@]2(C)O1 | 0% | 27% | 0% | 0% | 70% | 0% | 52% | 0% | 0% | 17% | 0% | 0% | 25% | 13% | 7% | 39% | 18% | 0%
C=C[C@@]1(C)CC[C@H]2[C@]3(C)CCC(=O)C(C)(C)[C@H]3CC[C@]2(C)O1 | 0% | 51% | 0% | 0% | 86% | 0% | 80% | 0% | 0% | 20% | 7% | 0% | 48% | 17% | 10% | 56% | 25% | 10%
C=C[C@]1(C)O[C@@]2(C)CC[C@@H]3C(C)(C)[C@@H](OC(C)=O)CC[C@@]3(C)C2=CC1=O | 0% | 100% | 0% | 0% | 100% | 0% | 100% | 0% | 0% | 32% | 12% | 0% | 45% | 21% | 0% | 50% | 34% | 12%
C=C[C@]1(C)O[C@@]2(C)C[C@H](O)[C@@H]3C(C)(C)[C@H](O)CC[C@@]3(C)[C@@H]2CC1=O | 0% | 0% | 0% | 0% | 0% | 0% | 0% | 0% | 0% | 14% | 0% | 0% | 15% | 0% | 0% | 19% | 0% | 0%
C=C[C@]1(C)O[C@@]2(C)C[C@H](O)[C@@H]3C(C)(C)[C@H](O)CC[C@@]3(C)[C@@H]2C[C@@H]1O | 0% | 0% | 0% | 0% | 0% | 0% | 0% | 0% | 0% | 35% | 7% | 0% | 46% | 11% | 0% | 50% | 16% | 0%
